Results published in patent US20240335431A1, “1-H-PYRROLO[2,3-c]PYRIDINE COMPOUNDS” (Acerta Pharma B.V., priority 2023, published 2024).
pIC50: −log10 of the molar value.

Key:
[1] = test system: OCI-AML3 cells; test: Proliferation assay, OCI-AML3 (CellTiter-Glo, 7 days); type: cell-based, human
Protocol: (§1) The anti-proliferative effect of compounds was tested in human leukaemia cell lines. The cell lines […] and MV4; 11 each harbor an MLL translocation expressing the MLL fusion proteins MLL-AF9 and MLL-AF4, respectively. Each also express the wildtype protein from the second allele. OCI-AML3 cells carrying the NPM1c gene mutation were also tested.
(§2) MOLM-13 and HEL cells were cultured in RPMI 1640 (Gibco) supplemented with 10% FBS (Gibco) and 1% Pen/Strep (Gibco). MV4; 11 cells were cultured in IMDM (Gibco) supplemented with 10% FBS (Gibco) and 1% Pen/Strep (Gibco). OCI-AML3 cells were cultured in MEMa (Gibco) supplemented with 20% FBS (Gibco) and 1% Pen/Strep (Gibco).
(§3) To assess proliferative effects, 125 MOLM-13 cells, 300 MV4; 11 cells, 75 OCI-AML3 cells, and 200 HEL cells were seeded in 40 μL media per well in 384-well ViewPlates (Perkin Elmer, 6007480). Cell seeding numbers were chosen based on growth curves to ensure linear growth throughout the experiments. Test compounds were added at 3.16-fold serial dilutions in DMSO from […] and DMSO content was normalized to 0.1%. Cells were incubated for 7 days at 37° C. and 5% CO2. A day 0 plate was seeded for each cell line and used as a standard control.
(§4) To measure cell viability, CellTiter-Glo 2.0 (Promega, G9242) luminescent growth indicator was used. 10 μL CellTiter-Glo reagent was added per well. Plates were placed on a plate shaker for 2 minutes in the dark and left to incubate off the shaker for another 8 minutes in the dark, for a total of 10 minutes. Plates were read using an EnVision plate reader (Perkin Elmer) using the Luminescence aperture and a measurement time of 0.1 second.
(§5) Data were analyzed in Genedata Screener®. IC50 values were determined by plotting % inhibition versus log compound concentration and using a one site dose response model. Raw data signals were normalized using 0.1% DMSO media only as background control, 0.1% DMSO with cells no compound as 100% viability (maximum signal), and day 0 0.1% DM with cells no compound as 0% viability (minimum signal).

[2] = test system: MV4;11 cells; test: Proliferation assay, MV4;11 (CellTiter-Glo, 7 days); type: cell-based, human; conditions: read-out: MV-4-11 IC50
Protocol: as §1, §2, §3, §4, §5

[3] = molecular target: Menin protein (Homo sapiens, UniProt O00255, DEL460-519); test: Menin/MLL fluorescence polarization (FP) assay; type: binding; conditions: Menin 2 nM, cRho110-Ahx-MBM1/MBM2 peptide 1 nM
Sequence of Menin protein (O00255 with tags, fused parts or gaps DEL460-519): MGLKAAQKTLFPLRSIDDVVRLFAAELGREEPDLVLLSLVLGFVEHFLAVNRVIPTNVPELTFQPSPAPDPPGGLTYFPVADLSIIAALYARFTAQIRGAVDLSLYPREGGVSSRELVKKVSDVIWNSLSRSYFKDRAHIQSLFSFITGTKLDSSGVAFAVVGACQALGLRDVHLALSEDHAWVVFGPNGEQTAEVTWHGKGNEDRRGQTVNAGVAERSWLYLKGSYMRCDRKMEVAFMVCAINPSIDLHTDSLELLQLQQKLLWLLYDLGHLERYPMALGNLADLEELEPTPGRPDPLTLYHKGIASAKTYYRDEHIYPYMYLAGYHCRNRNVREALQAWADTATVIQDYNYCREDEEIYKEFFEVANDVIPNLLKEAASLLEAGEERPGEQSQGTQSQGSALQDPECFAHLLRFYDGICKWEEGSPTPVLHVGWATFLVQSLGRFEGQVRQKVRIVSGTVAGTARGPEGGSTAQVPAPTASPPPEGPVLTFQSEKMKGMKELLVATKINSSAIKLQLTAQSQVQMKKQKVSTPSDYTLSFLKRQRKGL
Protocol: Compounds were tested in a biochemical binding assay using Menin protein at 2 nM (N6his-tev-Menin_4i80, PB-20-1459) and the substrate cRho110-Ahx-MBM1/MBM2 peptide (UbiQ, UbiQ-Q20201030; cRh110-Ahx-[…]-QRVPALLLPPG-NH2) at 1 nM.
384 Low volume black plates (Corning #4514) were used. 5 μL/well compound or 3% DMSO was added at 10-fold serial dilutions in DMSO from 10 μM. 5 μL/well cRho110-Ahx-MBM1/MBM2 peptide or binding buffer (50 mM Tris pH 7.5, 50 mM NaCl, 1 mM TCEP, 0.01% BGG, 0.01% Brij-35) was added to all wells. 5 μL/well Menin protein or binding buffer (50 mM Tris pH 7.5, 50 mM NaCl, 1 mM TCEP, 0.01% BGG, 0.01% Brij-35) was added to all wells. Plates were read on an EnVision plate reader (Perkin Elmer) with excitation at 480 nm and emission at 535 nm P+S, and measured every 5 minutes for 180 minutes.
Data were analyzed in Genedata Screener®. IC50 values were determined by plotting % inhibition versus log compound concentration and using a one site dose response model. Raw data signals were normalized using 1% DMSO no Menin as 100% inhibitor control and 1% DMSO with Menin and no inhibitor as 0% inhibitor control.

[4] = Human liver microsomes (HLMs) intrinsic clearance assay; type: in vitro ADME; conditions: human, microsomes, 1 µM, pH 7.4
[5] = test system: MOLM-13 cells; test: Proliferation assay, MOLM-13 (CellTiter-Glo, 7 days); type: cell-based, human
Summary of the method: (§6)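 Cells seeded at 125 (MOLM-13), 300 (MV4;11), 75 (OCI-AML3) or 200 (HEL) per well were exposed to 3.16-fold compound dilutions (0.1% DMSO) for 7 days at 37° C. Viability by CellTiter-Glo luminescence, normalized to DMSO (100%) and day-0 plate (0%); IC50 from one-site dose-response fit.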

[6] = test system: HEL cells; test: Proliferation assay, HEL control cell line (CellTiter-Glo, 7 days); type: cell-based, human
Summary of the method: as §6

[7] = test system: MOLM-13 cells; test: Cell death in MOLM-13 cell line, Compound 56-2 with BCL2 inhibitor venetoclax (CellTiter-Glo, 4 days); type: cell-based, human
Protocol: Test compound was dispensed using a Tecan compound dispenser into 384-well plates (Microplate 384-well, polypropylene, F-bottom; Greiner Bio-One, #781201) in a ten-by-ten response matrix to assess the combination effects of Menin inhibition (Compound 56-2) together with BCL-2 inhibition (venetoclax) at the following concentrations after subsequent cell seeding in 40 μL of growth media: 10 μM, 3.16 μM, 1 μM, 0.316 μM, 0.1 μM, 0.0316 μM, 0.01 μM, 0.00316 μM, […], and vehicle (DMSO; Sigma-Aldrich, D2650). Cells were seeded at 1000 cells per well and incubated at 37° C. and 5% CO2. MOLM-13 cells were grown in RPM1 1640 (Gibco, #21875091) supplemented with 10% FBS (Gibco; #10091-148) and 1% Pen/Strep (Gibco; #15140-122). After 4 days of compound treatment, plates were placed at room temperature for 15 minutes. 10 μL CellTiter-Glo reagent (Promega, #G9242) was added to the cells and incubated for 10 minutes in the dark on a plate shaker at room temperature. A backseal (Perkin Elmer; #6005199) was added to the plates and luminescence was measured at 0.1 sec/well in an Envision (Perkin Elmer). Data were normalized for each plate so that the average of control wells (DMSO) was set to 0%, and the maximum observed value across the plate was set as 100%. Data fitting was performed using Graphpad Prism and combination effect was assessed using SynergyFinder.

pIC50 [1]	pIC50 [2]	pIC50 [3]	HLM CLint [4] [µL/min/mg]	pIC50 [5]	Structure (SMILES)	pIC50 [6]	cell viability as monotherapy (in words) [7]
6.93	7.28	7.32	89	7.15	Cc1c(C(=O)[C@@H]2CCN(C(=O)[C@H]3NC[C@@H]4C[C@@H]43)[C@@H](C)C2)c2ccncc2n1-c1ccc(F)cc1C(=O)N(CC(F)(F)F)C(C)C (single isomer, unassigned) [Example 53-4, 2-(3-((2R*,4S*)-1-((1S,2S,5R)-3-Azabicyclo[3.1.0]hexane-2-carbonyl)-2-methylpiperidine-4-carbonyl)-2-methyl-1H-pyrrolo[2,3-c]pyridin-1-yl)-5-fluoro-N-isopropyl-N-(2,2,2-trifluoroethyl)benzamide]	< 5.00	
					CC1(C)CCC(CN2CCN(c3ccc(C(=O)NS(=O)(=O)c4ccc(NCC5CCOCC5)c([N+](=O)[O-])c4)c(Oc4cnc5[nH]ccc5c4)c3)CC2)=C(c2ccc(Cl)cc2)C1 [venetoclax, reference compound]		cell viability loss was induced
